The text below walks through data of patent publication US20240148664A1, “LIPID AND COMPOSITION” (SOGO PHARMACEUTICAL CO., LTD., priority 2021, published 2024).

SMILES strings stand for the structures.

For the data set, the system named is HT1080-EGFP (human/fibrosarcoma) cells. Nature of the data set: Evaluation of toxicity: CCK-8 assay. The class given is cell-based. The conditions noted are these: lipid nanoparticle containing siRNA; absorbance relative to control cells without lipid nanoparticle set at 1.00. As to the method: A. Provision of Cells • (i) A liquid medium (DMEM/Ham's F12, FBS+, P/S+) (FBS: fetal bovine serum, P/S: antibiotic) was taken out from a refrigerator and temperature-controlled in an incubator set at 37° C. • (ii) A cryotube containing the cells was taken out from a −80° C. freezer and thawed at once in an incubator set at 37° C. • (iii) A stock solution of the thawed cells was collected in a capped test tube. • (iv) The tube containing the cells was washed with the liquid medium, and the wash was also collected in the test tube. • (v) The tube was subjected to a centrifuge to precipitate the cells. • (vi) The supernatant was aspirated, and the liquid medium was added and gently tapped to disperse the cells. • (vii) A small amount of the cells-dispersed liquid medium was collected, and the number of cells was observed and counted under a microscope. • (viii) The cells were seeded in a 24-well plate such that the number of cells was 2×10^4 cells per well. For the plate for an LDH assay described later, the cells were seeded in a 96-well plate such that the number of cells was 4×10^3 cells per well. • (ix) The 24-well plate or the 96-well plate was placed in an incubator, and the cells were cultured for 24 hours under conditions of 37° C. and 5% CO2.
The produced lipid nanoparticles were introduced into cells. • (i) Fetal bovine serum (FBS) was added to a liquid medium (FBS-, P/S-) temperature-controlled as in (i) of A above, in such a way as to reach 10%. • (ii) A 24-well plate was taken out from an incubator, and the liquid medium supernatant in the 24-well plate was aspirated and washed with phosphate buffered saline (PBS). • (iii) 400 μL of the liquid medium produced in (i) above was added to the washed 24-well plate. In addition, 100 μL of an LNP solution having an adjusted concentration was added. • (iv) The 24-well plate was placed in the incubator, and the cells were cultured (for 24 hours). • (v) After 24 hours, the liquid medium supernatant in the 24-well plate was aspirated, and 500 μL of a liquid medium containing 10% FBS (FBS+/P/S+) was added. • (vi) The 24-well plate was placed in the incubator, and the cells were cultured for 24 hours under conditions of 37° C. and 5% CO2.
For Examples 1 to 9, a CCK-8 assay or an LDH assay was carried out to measure the metabolic activity of viable cells and relatively quantify the number of surviving cells to evaluate the toxicity of lipid nanoparticles.
(a) CCK-8 Assay • (i) Fetal bovine serum (FBS) and a viable cell counting kit (manufactured by DOJINDO LABORATORIES, Cell Count Kit-8) was added to a liquid medium (FBS-, P/S-) temperature-controlled as in (i) of A above, such that FBS was 10% and the kit was 10%. • (ii) A 24-well plate was taken out from an incubator. The liquid medium was removed, and 315 μL of the liquid medium containing the viable cell counting kit produced in (i) above was added. • (iii) The liquid medium was aged for 1 hour in the incubator. • (iv) The 24-well plate was taken out, and the absorbance was measured under conditions of a measurement wavelength of 450 nm and a target wavelength of 630 nm with a plate reader (manufactured by TECAN, Infinite M200). The absorbance was calculated with the absorbance of control cells to which no lipid nanoparticle was added set at 1.00. When the obtained value was 0.80 or more and 1.00 or less, a rating of double-circle (excellent) was given, when the obtained value was 0.50 or more and less than 0.80, a rating of circle (good) was given, when the obtained value was 0.20 or more and less than 0.50, a rating of triangle (fair) was given, and when the obtained value was less than 0.20, a rating of X-mark (poor) was given.
(Tetrazolium dyes change colour on reduction, which living cells bring about.)
Turning to `CCCCCCCC/C=C\CCCCCCCCC(CCCCCCC/C=C\CCCCCCCC)OC(=O)C(CO)NC(=O)C(N)CCCNC(=N)N` [Example 4, (9Z,27Z)-hexatriaconta-9,27-dien-18-yl (2S)-2-((S)-2-amino-5-guanidinopentanamido)-3-hydroxypropionate], the “CCK Assay” value is “◯ (when the obtained value was 0.50 or more and less than 0.80, a rating of circle (good) was given)”. Under `CCCCCCCC/C=C\CCCCCCCCC(CCCCCCC/C=C\CCCCCCCC)OC(=O)C(CC(=O)O)NC(=O)C(N)CCCNC(=N)N` (stereo not drawn) [Example 1, 3-(2-amino-5-guanidinopentanamido)-4-(((9Z,27Z)-hexatriaconta-9,27-dien-18-yl)oxy)-4-oxobutanoic acid] stands “⊚ (When the obtained value was 0.80 or more and 1.00 or less, a rating of double-circle (excellent) was given)”; under `CCCCCCCC/C=C\CCCCCCCCC(CCCCCCC/C=C\CCCCCCCC)OC(=O)C(CCC(=O)O)NC(=O)C(N)CCCNC(=N)N` (stereo not drawn) [Example 2, 4-(2-amino-5-guanidinopentanamido)-5-(((9Z,27Z)-hexatriaconta-9,27-dien-18-yl)oxy)-5-oxopentanoic acid], “⊚ (When the obtained value was 0.80 or more and 1.00 or less, a rating of double-circle (excellent) was given)”.
